Laboratory results: patent US10294202B2, “Pyrrolidinones as herbicides” (FMC Corporation, priority 2013, dated 2019)

Experiments:
pigweed = assay: Test A pre-/postemergence herbicide test; format: in vivo, Amaranthus retroflexus
How it was run: (§1)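 Seeds sown in loam soil/sand blend received a preemergence directed soil spray of test chemical in non-phytotoxic solvent with surfactant; postemergence plants (2–10 cm, one- to two-leaf stage) were sprayed with the same formulation. After about 10 days in greenhouse, injury was rated visually versus untreated controls, 0 (no effect) to 100 (complete control).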

ducksalad = assay: Test B flooded paddy test; format: in vivo, Heteranthera limosa; details: 500 g ai/ha, Flood; scale of 0 to 100 where 0 is no effect and 100 is complete control
How it was run: (§2)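 Treatment was made at the 2-leaf stage by dosing the standing floodwater, kept 3 cm above soil level for the whole test. Greenhouse exposure lasted 13 to 15 days. Response is a visual percent rating relative to controls, where a dash indicates no test result.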

barnyardgrass [1] = assay: Test A pre-/postemergence herbicide test; format: in vivo, Echinochloa crus-galli
How it was run: as §1

ryegrass, Italian = assay: Test A pre-/postemergence herbicide test; format: in vivo, Lolium multiflorum
How it was run: as §1

kochia = assay: Test A pre-/postemergence herbicide test; format: in vivo, Kochia scoparia
How it was run: as §1

corn = assay: Test A pre-/postemergence herbicide test; format: in vivo, Zea mays; details: Postemergence
How it was run: as §1

ragweed = assay: Test A pre-/postemergence herbicide test; format: in vivo, Ambrosia elatior
How it was run: as §1

galium = assay: Test A postemergence herbicide test; format: in vivo, Galium aparine
How it was run: (§3)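 Young potted plants in a loam–sand mix, one- to two-leaf stage and 2–10 cm tall, receive the test chemical postemergence and stay in a greenhouse for approximately 10 days. Injury is then judged by eye against untreated plants, scored 0 (none) to 100 (complete control).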

blackgrass = assay: Test A postemergence herbicide test; format: in vivo, Alopecurus myosuroides
How it was run: as §3

rice = assay: Test B flooded paddy test; format: in vivo, Oryza sativa; details: 500 g ai/ha, Flood; scale of 0 to 100 where 0 is no effect and 100 is complete control
How it was run: as §2

sedge, umbrella = assay: Test B flooded paddy test; format: in vivo, Cyperus difformis; details: 500 g ai/ha, Flood; scale of 0 to 100 where 0 is no effect and 100 is complete control
How it was run: as §2

giant foxtail = assay: Test A pre-/postemergence herbicide test; format: in vivo, Setaria faberii
How it was run: as §1

barnyardgrass [2] = assay: Test B flooded paddy test; format: in vivo, Echinochloa crus-galli; details: 500 g ai/ha, Flood; scale of 0 to 100 where 0 is no effect and 100 is complete control
How it was run: as §2

wheat = assay: Test A pre-/postemergence herbicide test; format: in vivo, Triticum aestivum; details: Postemergence
How it was run: as §1

[3] = Postemergence, 125 g ai/ha, visual rating on 0 to 100 scale (0 no effect, 100 complete control), approx. 10 days
[4] = Postemergence, 500 g ai/ha, 0 to 100 scale (0 no effect, 100 complete control)
[5] = Preemergence, 125 g ai/ha, 0 to 100 scale where 0 is no effect and 100 is complete control
[6] = Preemergence, 500 g ai/ha, visual rating on 0 to 100 scale (0 no effect, 100 complete control)
[7] = 125 g ai/ha, visual rating on 0 to 100 scale (0 no effect, 100 complete control), approx. 10 days
[8] = 500 g ai/ha, 0 to 100 scale (0 no effect, 100 complete control)
[9] = preemergence, 500 g ai/ha, 0 to 100 scale, 0 is no effect and 100 is complete control

SMILES: O=C1NCC(c2cccc(I)c2)C1C(=O)Nc1ccccc1C(F)(F)F (stereo not shown) [Compound 328]
- Plant response rating, Pigweed (pigweed; [3]): 0
- Plant response rating, Pigweed (pigweed; [4]): 0
- Plant response rating, Pigweed (pigweed; [5]): 0
- Pigweed plant response rating (pigweed; [6]): 0
- Plant response rating, Ducksalad (ducksalad): 35
- Plant response rating, Barnyardgrass (barnyardgrass [1]; [3]): 30
- Plant response rating, Barnyardgrass (barnyardgrass [1]; [4]): 80
- Plant response rating, Barnyardgrass (barnyardgrass [1]; [5]): 40
- Barnyardgrass plant response rating (barnyardgrass [1]; [6]): 80
- Plant response rating, Ryegrass, Italian (ryegrass, Italian; [3]): 0
- Plant response rating, Ryegrass, Italian (ryegrass, Italian; [4]): 20
- Plant response rating, Ryegrass, Italian (ryegrass, Italian; [5]): 0
- Ryegrass, Italian plant response rating (ryegrass, Italian; [6]): 40
- Plant response rating, Kochia (kochia; [3]): 0
- Plant response rating, Kochia (kochia; [4]): 20
- Plant response rating, Kochia (kochia; [5]): 0
- Kochia plant response rating (kochia; [6]): 20
- Plant response rating, Corn (corn; [7]): 0
- Plant response rating, Corn (corn; [8]): 0
- Plant response rating, Ragweed (ragweed; [3]): 0
- Plant response rating, Ragweed (ragweed; [4]): 0
- Plant response rating, Ragweed (ragweed; [5]): 0
- Ragweed plant response rating (ragweed; [6]): 0
- Plant response rating, Galium (galium; [7]): 20
- Plant response rating, Galium (galium; [8]): 50
- Plant response rating, Blackgrass (blackgrass; [7]): 30
- Plant response rating, Blackgrass (blackgrass; [8]): 40
- Plant response rating, Rice (rice): 0
- Plant response rating, Sedge, Umbrella (sedge, umbrella): 0
- Plant response rating, Foxtail, Giant (giant foxtail; [3]): 70
- Plant response rating, Foxtail, Giant (giant foxtail; [4]): 80
- Plant response rating, Foxtail, Giant (giant foxtail; [5]): 80
- Foxtail, Giant plant response rating (giant foxtail; [6]): 90
- Plant response rating, Barnyardgrass (barnyardgrass [2]): 0
- Plant response rating, Wheat (wheat; [7]): 0
- Plant response rating, Wheat (wheat; [8]): 0

SMILES: CSc1cccc(C2CNC(=O)C2C(=O)Nc2ccc(F)cc2F)c1 (stereo not shown) [Compound 288]
- Plant response rating, Pigweed (pigweed; [3]): 0
- Plant response rating, Pigweed (pigweed; [4]): 0
- Plant response rating, Pigweed (pigweed; [5]): 0
- Plant response rating, Pigweed (pigweed; [9]): 0
- Plant response rating, Ducksalad (ducksalad): 65
- Plant response rating, Barnyardgrass (barnyardgrass [1]; [3]): 20
- Plant response rating, Barnyardgrass (barnyardgrass [1]; [4]): 80
- Plant response rating, Barnyardgrass (barnyardgrass [1]; [5]): 30
- Plant response rating, Barnyardgrass (barnyardgrass [1]; [9]): 70
- Plant response rating, Ryegrass, Italian (ryegrass, Italian; [3]): 0
- Plant response rating, Ryegrass, Italian (ryegrass, Italian; [4]): 0
- Plant response rating, Ryegrass, Italian (ryegrass, Italian; [5]): 0
- Ryegrass, Italian plant response rating (ryegrass, Italian; [6]): 20
- Plant response rating, Kochia (kochia; [3]): 0
- Plant response rating, Kochia (kochia; [4]): 20
- Plant response rating, Kochia (kochia; [5]): 30
- Plant response rating, Kochia (kochia; [9]): 50
- Plant response rating, Corn (corn; [7]): 0
- Plant response rating, Corn (corn; [8]): 0
- Plant response rating, Ragweed (ragweed; [3]): 0
- Plant response rating, Ragweed (ragweed; [4]): 0
- Plant response rating, Ragweed (ragweed; [5]): 0
- Plant response rating, Ragweed (ragweed; [9]): 0
- Plant response rating, Galium (galium; [7]): 0
- Plant response rating, Galium (galium; [8]): 0
- Plant response rating, Blackgrass (blackgrass; [7]): 0
- Plant response rating, Blackgrass (blackgrass; [8]): 0
- Plant response rating, Rice (rice): 0
- Plant response rating, Sedge, Umbrella (sedge, umbrella): 0
- Plant response rating, Foxtail, Giant (giant foxtail; [3]): 20
- Plant response rating, Foxtail, Giant (giant foxtail; [4]): 30
- Plant response rating, Foxtail, Giant (giant foxtail; [5]): 30
- Plant response rating, Foxtail, Giant (giant foxtail; [9]): 90
- Plant response rating, Barnyardgrass (barnyardgrass [2]): 20
- Plant response rating, Wheat (wheat; [7]): 0
- Plant response rating, Wheat (wheat; [8]): 0

SMILES: O=C1NCC(c2ccc(Cl)s2)C1C(=O)Nc1ccccc1C(F)(F)F (stereo not shown) [Compound 293]
- Plant response rating, Pigweed (pigweed; [3]): 0
- Plant response rating, Pigweed (pigweed; [4]): 0
- Plant response rating, Pigweed (pigweed; [5]): 0
- Plant response rating, Pigweed (pigweed; [9]): 0
- Plant response rating, Ducksalad (ducksalad): 95
- Plant response rating, Barnyardgrass (barnyardgrass [1]; [3]): 50
- Plant response rating, Barnyardgrass (barnyardgrass [1]; [4]): 70
- Plant response rating, Barnyardgrass (barnyardgrass [1]; [5]): 20
- Plant response rating, Barnyardgrass (barnyardgrass [1]; [9]): 70
- Plant response rating, Ryegrass, Italian (ryegrass, Italian; [3]): 0
- Plant response rating, Ryegrass, Italian (ryegrass, Italian; [4]): 0
- Plant response rating, Ryegrass, Italian (ryegrass, Italian; [5]): 0
- Ryegrass, Italian plant response rating (ryegrass, Italian; [6]): 0
- Plant response rating, Kochia (kochia; [3]): 0
- Plant response rating, Kochia (kochia; [4]): 0
- Plant response rating, Kochia (kochia; [5]): 0
- Plant response rating, Kochia (kochia; [9]): 0
- Plant response rating, Corn (corn; [7]): 0
- Plant response rating, Corn (corn; [8]): 0
- Plant response rating, Ragweed (ragweed; [3]): 0
- Plant response rating, Ragweed (ragweed; [4]): 0
- Plant response rating, Galium (galium; [7]): 20
- Plant response rating, Galium (galium; [8]): 60
- Plant response rating, Blackgrass (blackgrass; [7]): 0
- Plant response rating, Blackgrass (blackgrass; [8]): 10
- Plant response rating, Rice (rice): 0
- Plant response rating, Sedge, Umbrella (sedge, umbrella): 0
- Plant response rating, Foxtail, Giant (giant foxtail; [3]): 50
- Plant response rating, Foxtail, Giant (giant foxtail; [4]): 70
- Plant response rating, Foxtail, Giant (giant foxtail; [5]): 80
- Plant response rating, Foxtail, Giant (giant foxtail; [9]): 90
- Plant response rating, Barnyardgrass (barnyardgrass [2]): 35
- Plant response rating, Wheat (wheat; [7]): 0
- Plant response rating, Wheat (wheat; [8]): 0
